Data on ten molecules can be found in patent publication US20060205697A1, “Novel betulin derivatives, preparation thereof and use thereof” (priority 2004, published 2006).

Data set [1] deals with HIV-1 IIIIB isolate. As to the kind of experiment: HIV-1 inhibition: suppression of virus-induced cell killing in MT-2 cells, XTT method. In kind it is cell-based. The note with it: Human immunodeficiency virus 1, IIIB, MT2, 120 h, read-out: anti-HIV activity (EC50). Here is the method:
The biological evaluation of HIV-1 inhibition can be carried out as follows according to established protocols (Montefiori, D. C., et al., Clin. Microbiol. 26:231-235 (1988); Roehm, N., et al. J. Immunol. Methods 142:257-265 (1991)).
(§1) The human T-cell line, MT-2, was maintained in continuous culture with complete medium (RPMI 1640 with 10% fetal calf serum supplemented with L-glutamine at 5% CO2 and 37° C.). Test samples were first dissolved in dimethyl sulfoxide at a concentration of 10 mg/mL to generate master stocks with dilutions made into tissue culture media to generate working stocks. The final drug concentrations used for screening were 25. 2.5, 0.25, and 0.025 μg/mL. For agents found to be active, additional dilutions were prepared for subsequent testing so that an accurate EC50 value (defined below) could be determined. Test samples were prepared in duplicate (45 μL/well) and to each sample well was added […] of media containing MT-2 cells at 3×10^5 cells/mL and 45 μL of virus inoculum (HIV-1 IIIIB isolate) at a concentration necessary to result in 50% killing of the cell targets at 5 days post-infection (PI). Control wells containing virus and cells only (no drug) and cells only (no virus or drug) were also prepared. A second set of samples were prepared identical to the first and were added to cells under identical conditions without virus (mock infection) for toxicity determinations (IC50 defined below). In addition, AZT was also assayed during each experiment as a positive drug control. On day 5 PI, virus-induced cell killing was determined by measuring cell viability using the XTT method (Roehm, N., et al., supra). Compound toxicity was determined by XTT using the mock-infected samples. If a test sample had suppressive capability and was not toxic, its effects were reported in the following terms: IC50, the concentration of test sample which is toxic to 50% of the mock-infected MT-2 cells; EC50, the concentration of the test sample that is able to suppress HIV replication by 50%; and the Therapeutic index (TI) the ratio of the IC50 to EC50. The effective (EC50) and inhibitory (IC50) concentrations for anti-HIV activity and cytotoxicity, respectively, were determined (Roehm, N., et al., supra).

Data set [2] is described as follows: Compound toxicity in mock-infected MT-2 cells, XTT method. In kind it is cell-based. The settings on record: human. The protocol: as §1
On the technique in general: Tetrazolium assays rely on reduction of a dye to a coloured formazan, in cell work by metabolically active cells.

Data set [3] relates to HIV-1 replication in H9 lymphocyte cells. The note with it: cited from earlier work.

Molecules are shown by their SMILES. Where two headings read alike, the source gives them in different places.

For `C=C(C)[C@@H]1CC[C@]2(C(=O)OC3CCOC3)CC[C@]3(C)[C@H](CC[C@@H]4[C@@]5(C)CC[C@H](OC(=O)CC(C)(C)CC(=O)O)C(C)(C)[C@@H]5CC[C@]43C)[C@@H]12` (mixture of isomers) [Compound 231, 3-O-(31,3′-Dimethylglutaryl)betulinic acid 3-(R/S)-3-(tetrahydrofuranyl) ester], the EC50 in data set [1] was in the range of 1 to 300 nM. Also, the IC50 at 5 days in data set [2] lay in the range of 5000 to 100000 nM.
For the molecule `C=C(C)[C@@H]1CC[C@]2(CN)CC[C@]3(C)[C@H](CC[C@@H]4[C@@]5(C)CC[C@H](OC(=O)CC(C)(C)CC(=O)O)C(C)(C)[C@@H]5CC[C@]43C)[C@@H]12` [Compound 49, 3-O-(3′,3′-dimethylglutaryl)lup-20(29)-en-28-ylamine], the EC50 in data set [1] lay within 1 to 300 nM. In data set [2], this molecule registered an IC50 at 5 days of 5000 to 100000 nM.
In the same order, the values of `C=C(C)[C@@H]1CC[C@]2(C(=O)OCCC#N)CC[C@]3(C)[C@H](CCC4[C@@]5(C)CC[C@H](OC(=O)CC(C)(C)CC(=O)O)C(C)(C)C5CC[C@]43C)C12` (some centres unmarked) [Compound 206, 3-O-(3′,3′-Dimethylglutaryl)betulinic acid 2-cyanoethyl ester] are 1 to 300 nM and 5000 to 100000 nM.
Taken in the same sequence, the figures for `C=C(C)[C@@H]1CC[C@]2(C(=O)OCCN(C)C)CC[C@]3(C)[C@H](CCC4[C@@]5(C)CC[C@H](OC(=O)CC(C)(C)CC(=O)O)C(C)(C)C5CC[C@]43C)C12` (some centres unmarked) [Compound 218, 3-O-(3′,3′-Dimethylglutaryl)betulinic acid 2-N,N-dimethylaminoethyl ester] were 1 to 300 nM and 5000 to 100000 nM.
In the same order, the values of `C=C(C)[C@@H]1CC[C@]2(C(=O)OCCOC)CC[C@]3(C)[C@H](CC[C@@H]4[C@@]5(C)CC[C@H](OC(=O)CC(C)(C)CC(=O)O)C(C)(C)[C@@H]5CC[C@]43C)[C@@H]12` [Compound 223, 3-O-(3′,3′-Dimethylglutaryl)betulinic acid 2-methoxyethyl ester] are 1 to 300 nM and 5000 to 100000 nM.
On to `C=C(C)[C@@H]1CC[C@]2(C(=O)OC3CCN(C(=O)OC(C)(C)C)C3)CC[C@]3(C)[C@H](CC[C@@H]4[C@@]5(C)CC[C@H](OC(=O)CC(C)(C)CC(=O)O)C(C)(C)[C@@H]5CC[C@]43C)[C@@H]12` (stereo partly drawn) [Compound 227, 3-O-(3′,3′-Dimethylglutaryl)betulinic acid (R)-3-[1-(tert-butoxycarbonyl)-pyrrolidinyl] ester], for which the EC50 in data set [1] fell in the range of 1 to 300 nM. For the same molecule, the IC50 at 5 days in data set [2] was in the range of 5000 to 100000 nM.
For `C=C(C)[C@@H]1CC[C@]2(C(=O)OCC)CC[C@]3(C)[C@H](CC[C@@H]4[C@@]5(C)CC[C@H](OC(=O)CC(C)(C)CC(=O)O)C(C)(C)[C@@H]5CC[C@]43C)[C@@H]12` [Compound 235, 3-O-(3′,3′-Dimethylglutaryl)betulinic acid ethyl ester], the EC50 in data set [1] was 1 to 300 nM. Besides, the IC50 at 5 days in data set [2] fell in the range of 5000 to 100000 nM.
In the same order, the values of `C=C(C)[C@@H]1CC[C@]2(CNC(=O)OC(C)(C)C)CC[C@]3(C)[C@H](CC[C@@H]4[C@@]5(C)CC[C@H](OC(=O)CC(C)(C)CC(=O)O)C(C)(C)[C@@H]5CC[C@]43C)[C@@H]12` [Compound 1065, tert-Butoxycarboxamide N-[3-O-(3′,3′-dimethylglutaryl)lup-20(29)-en-28-yl]] are 1 to 300 nM and 5000 to 100000 nM.
With `CC(C)[C@@H]1CC[C@]2(C(=O)O)CC[C@]3(C)C(CCC4[C@@]5(C)CC[C@H](O)C(C)(C)C5CC[C@]43C)C12` (some centres unmarked) [dihydrobetulinic acid], in data set [3] (H9 lymphocyte cells), the T.I. is 14. Moreover, in data set [3] (unit inferred, Fujioka et al. 1994, read-out: EC50, anti-HIV activity), the EC50 is 900 nM.
Take `CC(=O)[C@@H]1CC[C@]2(C(=O)O)CC[C@]3(C)[C@H](CC[C@@H]4[C@@]5(C)CC[C@H](O)C(C)(C)[C@@H]5CC[C@]43C)[C@@H]12` [platanic acid]: the T.I. in data set [3] (H9 lymphocyte cells) was 14. For the same molecule, the EC50 in data set [3] (H9 lymphocyte cells, read-out: EC50, inhibitory activity against HIV-1 replication) was 6500 nM.

The EC50 is the concentration needed to bring the measured effect to its halfway point. As a reminder, the IC50 is the concentration at which inhibition is half-maximal.
